According to a compilation of properties of binary mixtures (doi:10.1021/acs.jced.9b01018):

Assay: xn = mol fraction of the nth substance listed
Details: 100 kPa

CC(=O)[O-].CCCC[n+]1ccn(C)c1 + O
viscosity [mPa·s]
Details | 278.15 K | 283.15 K | 293.15 K | 298.15 K | 303.15 K | 313.15 K | 323.15 K | 333.15 K | 343.15 K | 353.15 K
x2 = 0.012 | 2390 | 1403 | 562 | 375 | 260 | 136.6 | 79.4 | – | 31.37 | 21.85
x2 = 0.0173 | 2429 | 1425 | 567 | 380 | 263 | – | 78 | 48.1 | 31.4 | 22.07
